From paper PMC11618052, “Design, synthesis, and antiproliferative activity of new 1,2,3-triazole/quinazoline-4-one hybrids as dual EGFR/BRAF^V600E inhibitors” (RSC Advances, 2024) come the findings set out here.

Structures are written as SMILES.

In one assay the test system is Bcl-2. Nature of the assay: Bcl-2 level assay in MCF-7. Type of assay: cell-based, human. The note with it: for Bcl-2 Fold reduction: MCF-7, versus untreated control; for Bcl-2 Conc.: MCF-7 cancer cell line. As for the experimental part:
Compounds 8g and 8h were evaluated as caspase-3, 8 and Bax activators and as down-regulator of the anti-apoptotic protein Bcl2 against the MCF-7 breast cancer cell line.[40] Appendix A ^† contains more details. […]
4.2.1.8. Bcl-2inhibition assay
Mix all reagents thoroughly without foaming before use. Wash the microwells twice with approximately 300 μL Wash Buffer per well with thorough aspiration of microwell contents between washes. Take caution not to scratch the surface of the microwells. After the last wash, empty the wells and tap microwell strips on absorbent pad or paper towel to remove excess Wash Buffer. Use the microwell strips immediately after washing or place upside down on a wet absorbent paper for not longer than 15 minutes. […] Add 100 μL of Sample […]
Diluent in duplicate to all standard wells and to the blank wells. Prepare standard (1:2 dilution) in duplicate ranging from 32 ng/mL to 0.5 ng/mL. Add 100 μL of Sample Diluent, in duplicate, to the blank wells. Add 80 μL of Sample Diluent, in duplicate, to the sample wells. Add 20 μL of each Sample, in duplicate, to the designated wells. Add 50 μL of diluted biotin-conjugate to all wells, including the blank wells. Cover with a plate cover and incubate at room temperature, on a microplate shaker at 100 rpm if available, for 2 hours. Remove plate cover and empty the wells.
Wash microwell strips 3 times as described in step 2. Add 100 μL of diluted Streptavidin-HRP to all wells, including the blank wells. Cover with a plate cover and incubate at room temperature, on a microplate shaker at 100 rpm if available, for 1 hour. Remove plate cover and empty the wells.
Wash microwell strips 3 times as described in step 2. Proceed to the next step. Pipette 100 μl of mixed TMB Substrate Solution to all wells, including the blanks. Incubate the microwell strips at room temperature (18° to 25°C) for about 15 minutes, if available on a rotator set at 100 rpm.
Avoid direct exposure to intense light. The point, at which the substrate reaction is stopped, is often determined by the ELISA reader. Many ELISA readers record absorbance only up to 2.0
O.D. Therefore, the color development within individual microwells must be watched by the person running the assay and the substrate reaction stopped before positive wells are no longer properly detectable. Stop the enzyme reaction by quickly pipetting 100 μL of Stop Solution into each well, including the blank wells. It is important that the Stop Solution is spread quickly and uniformly throughout the microwells to completely inactivate the enzyme. Results must be read immediately after the Stop Solution is added or within one hour if the microwell strips are stored at 2 - 8°C in the dark. Read absorbance of each microwell on a spectrophotometer using 450 nm as the primary wavelength. […]
(FITC) and propidium iodide (PI) staining kit (BD Pharmingen, San Diego, USA). […]
μL of FITC and PI were added to Eppendorf tube, cells were vortexed, incubated for 15 min at room temperature in dark. Subsequently, cells were analyzed by flow cytometry (Becton Dickinson, Franklin Lakes, and USA).

Another assay concerns Caspase-3. Nature of the assay: Caspase-3 activation assay in MCF-7. Type of assay: cell-based, human. The note with it: for Caspase-3 Fold change: MCF-7, versus untreated control; for Caspase-3 Conc.: MCF-7 cancer cell line. As for the experimental part: Compounds 8g and 8h were evaluated as caspase-3, 8 and Bax activators and as down-regulator of the anti-apoptotic protein Bcl2 against the MCF-7 breast cancer cell line.[40] Appendix A ^† contains more details.
Compounds 8g and 8h were evaluated as caspase-3 activators against the MCF-7 breast cancer cell line,[40] with results presented in Table 3. […] The compounds 8g and 8h increased the concentration of caspase-3 protein in the MCF-7 cancer cell line, showing levels that were 11 and 10 times higher than the untreated control and higher than staurosporine. […]
cancer cells, commercially available ELISA kits (Invitrogen) were used according to manufacturer’s instructions.
4.2.1.5. Caspase-3 activation assay
Allow all reagents to reach room temperature before use. Gently mix all liquid reagents prior to use. Determine the number of 8-well strips needed for the assay. Insert these in the frame(s) for current use. Add 100 μl of the Standard Diluent Buffer to the zero standard wells. Well(s) reserved for chromogen blank should be left empty. Add 100 μl of standards and controls or diluted samples to the appropriate microtiter wells. The sample dilution chosen should be optimized for each experimental system. Tap gently on side of plate to mix. Cover wells with plate cover and incubate for 2 hours at room temperature. Thoroughly aspirate or decant solution from wells and discard the liquid, Wash wells 4 times. Pipette 100 μl of Caspase-3 (Active) Detection Antibody solution into each well except the chromogen blank(s). Tap gently on the side of the plate to mix. Cover plate with plate cover and incubate for 1 hour at room temperature. Thoroughly aspirate or decant solution from wells and discard the liquid, Wash wells 4 times. Add 100 μl Anti-Rabbit IgG HRP Working Solution to each well except the chromogen blank(s). Prepare the working dilution as described in Preparing IgG HRP. Cover wells with the plate cover and incubate for 30 minutes at room temperature. Thoroughly aspirate or decant solution from wells and discard the liquid. Wash wells 4 times. Add 100 μl of Stabilized Chromogen to each well. The liquid in the wells will begin to turn blue. Incubate for 30 minutes at room temperature and in the dark. The incubation time for chromogen substrate is often determined by the microtiter plate reader used. Many plate readers have the capacity to record a maximum optical density (O.D.) of 2.0. The O.D. values should be monitored, and the substrate reaction stopped before the O.D. of the positive wells exceeds the limits of the instrument. The O.D. values at 450 nm can only be read after the Stop Solution has been added to each well. If using a reader that records only to 2.0 O.D., stopping the assay after […]
Add 100 μl of Stop Solution to each well. Tap side of plate gently to mix. The solution in the wells should change from blue to yellow. Read the absorbance of each well at 450 nm having blanked the plate reader against a chromogen blank composed of 100 μl each of Stabilized Chromogen and Stop Solution. Read the plate within 2 hours after adding the Stop Solution. Use a curve fitting software to generate the standard curve. A four-parameter algorithm provides the best standard curve fit. Read the concentrations for unknown samples and controls from the standard curve. Multiply value(s) obtained for sample(s) by the appropriate dilution factor to correct for the dilution in step 3. Samples producing signals greater than that of the highest standard should be diluted in Standard Diluent Buffer and reanalyzed. […]
Tubulin.). The absorbance of each microwell was read on a spectro-photometer at 450 nm. A standard curve is prepared from 7human Caspase-8 standard dilutions and human Caspase-8 concentration determined.
4.2.1.7. Bax activation assay

The target in another assay is BRAF^V600E. The experiment in a line: BRAF^V600E kinase inhibitory assay.
Chain of BRAF^V600E (P28028 whole entry V585E): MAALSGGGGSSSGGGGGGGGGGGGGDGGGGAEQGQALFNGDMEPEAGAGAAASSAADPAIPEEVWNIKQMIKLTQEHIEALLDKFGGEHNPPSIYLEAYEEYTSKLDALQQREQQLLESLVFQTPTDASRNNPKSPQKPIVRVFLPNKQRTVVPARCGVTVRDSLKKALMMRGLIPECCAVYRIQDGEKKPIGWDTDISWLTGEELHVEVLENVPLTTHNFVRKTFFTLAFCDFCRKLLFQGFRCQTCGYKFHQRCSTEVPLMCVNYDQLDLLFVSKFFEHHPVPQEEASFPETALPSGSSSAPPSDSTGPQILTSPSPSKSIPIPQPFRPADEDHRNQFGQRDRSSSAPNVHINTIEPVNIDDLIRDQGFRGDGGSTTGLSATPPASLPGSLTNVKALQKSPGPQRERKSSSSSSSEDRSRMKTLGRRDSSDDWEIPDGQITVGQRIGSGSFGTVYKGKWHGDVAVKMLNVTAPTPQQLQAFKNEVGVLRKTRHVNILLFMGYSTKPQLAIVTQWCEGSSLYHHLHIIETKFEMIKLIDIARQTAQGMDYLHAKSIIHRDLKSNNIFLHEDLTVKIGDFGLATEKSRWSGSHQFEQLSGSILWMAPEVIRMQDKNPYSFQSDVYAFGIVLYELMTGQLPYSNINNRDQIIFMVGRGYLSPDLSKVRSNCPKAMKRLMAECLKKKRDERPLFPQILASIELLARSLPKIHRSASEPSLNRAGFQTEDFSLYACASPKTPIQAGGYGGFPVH

Experimental for BRAF^V600E: V600E mutant BRAF kinase assay was performed to investigate the activity of tested compounds against BRAF. Mouse full-length GST-tagged BRAFV600E (7.5 ng, Invitrogen, PV3849) was pre-incubated with drug (1 µL) and assay dilution buffer (4 µL) for 60 min at 25 °C. In assay dilution buffer, a solution (5 µL) containing MgCl2 (30 mM), ATP (200 µM), recombinant human full length (200 ng) and N-terminal His-tagged MEK1 (Invitrogen) was added to start the assay, subsequent to incubation for 25 min at 25 °C. The assay was stopped using 5X protein denaturing buffer (LDS) solution (5 µL). To further denature the protein, heat (70° C) was applied for 5 min.
10 µL of each reaction was loaded into the precast plates and electrophoresis was allowed to proceed. After completion of electrophoresis, the front part of the precast gel plate (holding hot ATP) was cut and afterwards cast-off. The dried gel was developed using a phosphor screen. A

Consider `COc1ccc(-n2cc(CSc3nc4ccccc4c(=O)n3-c3ccc(C)cc3)nn2)cc1` [Compound 8g, 2-(((1-(4-Methoxyphenyl)-1H-1,2,3-triazol-4-yl)methyl)thio)-3-(p-tolyl)quinazolin-4(3H)-one], for which, in the assay on Bcl-2, the “Bcl-2 Fold reduction” value was determined as 7 and the “Bcl-2 Conc.” value amounted to 0.70 ng/mL. Also, in the assay with Caspase-3, the “Caspase-3 Fold change” value stood at 11 and the “Caspase-3 Conc.” value is 695 ± 5 pg/mL. For the same compound, the half-inhibitory concentration (IC50) on BRAF^V600E is 47 ± 3 nM.
As to `Cc1ccc(-n2cc(CSc3nc4ccccc4c(=O)n3-c3ccc(C)cc3)nn2)cc1` [Compound 8h, 2-(((1-(p-Tolyl)-1H-1,2,3-triazol-4-yl)methyl)thio)-3-(p-tolyl)quinazolin-4(3H)-one], in the assay with Bcl-2, the “Bcl-2 Fold reduction” value stood at 6 and the “Bcl-2 Conc.” value came out at 0.90 ng/mL. In the assay on Caspase-3, the “Caspase-3 Fold change” value turned out to be 10 and the “Caspase-3 Conc.” value turned out to be 650 ± 5 pg/mL. The midpoint of inhibition on BRAF^V600E, the IC50, lay at 55 ± 5 nM.
As to `CN[C@@H]1C[C@H]2O[C@@](C)([C@@H]1OC)n1c3ccccc3c3c4c(c5c6ccccc6n2c5c31)C(=O)NC4` [Staurosporine, reference compound], in the assay with Bcl-2, the “Bcl-2 Fold reduction” value is 5 and the “Bcl-2 Conc.” value amounted to 1.10 ng/mL. Also, in the assay on Caspase-3, the “Caspase-3 Fold change” value is 8 and the “Caspase-3 Conc.” value is 503 ± 4 pg/mL.
